Test results published in patent US20150010928A1, “MEANS AND METHODS FOR ASSESSING AN ENDOCRINE DISEASE OR DISORDER” (priority 2012, published 2015).
Marks after values point to notes of the source that are not given here.

Test system: female rats
Assay: Plasma metabolite profiling (GC-MS, LC-MS, SPE-LC-MS) in female rats dosed once daily over 28 days (OECD 407)
Assay type: in vivo, rat
Details: high dose
In short: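 Polar and lipid fractions profiled by GC-MS and LC-MS/MRM, steroids by online SPE-LC-MS; pool-normalized data compared to controls by Welch test as treatment ratios and p-values.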

With `C[C@]12C=CC3=C4CCC(=O)C=C4CCC3C1CC[C@@H]2O` (stereo partly drawn) [Trenbolone] the 3-Hydroxybutyrate (f7, female rats, Table 15a) was 2.05 *, the “DAG (C18:1,C18:2)” value (f7, female rats, Table 15a) was 1.42 * and the Glutamate (f7, female rats, Table 15a) was 1.18. The Glycine (f7, female rats, Table 15a) was 1.18 *, the “Phosphatidylcholine (C16:0,C20:5)” value (f7, female rats, Table 15a) was 1.09 and the “TAG (C16:0,C16:1)” value (f7, female rats, Table 15a) was 1.49 *. The “TAG (C16:0,C18:1,C18:3)” value (f7, female rats, Table 15a) was 1.48 *, the “TAG (C16:0,C18:2)” value (f7, female rats, Table 15a) was 1.83 * and the “TAG (C18:1,C18:2)” value (f7, female rats, Table 15a) was 1.72 *. The “TAG (C18:2,C18:2)” value (f7, female rats, Table 15a) was 1.61 *, the “TAG (C18:3, C18:2, C18:1)” value (f7, female rats, Table 15a) was 1.92 * and the “TAG (DAG-Fragment)” value (f7, female rats, Table 15a) was 1.8 *. The “TAG No 059” value (f7, female rats, Table 15a) was 1.62 *, the Threonic acid (f7, female rats, Table 15a) was 1.28 * and the trans-4-Hydroxyproline (f7, female rats, Table 15a) was 1.31 *. For the same compound, the Androstenedione (f7, female rats, Table 15b) was 0.3 *, the Arginine (f7, female rats, Table 15b) was 0.76 * and the Campesterol (f7, female rats, Table 15b) was 0.53 *. The “Ceramide (d18:1,C24:0)” value (f7, female rats, Table 15b) was 0.5 *, the Lactate (f7, female rats, Table 15b) was 0.65 * and the Lysine (f7, female rats, Table 15b) was 0.68 *. For the same compound, the Metanephrine (f7, female rats, Table 15b) was 1, the Normetanephrine (f7, female rats, Table 15b) was 0.83 * and the “Phosphatidylcholine (C16:0,C20:5)” value (f7, female rats, Table 15b) was 1.09. For the same compound, the “Phosphatidylcholine (C16:0,C22:6)” value (f7, female rats, Table 15b) was 0.89, the “Phosphatidylcholine (C18:0, C20:3)” value (f7, female rats, Table 15b) was 0.77 * and the “Phosphatidylcholine (C18:0,C18:1)” value (f7, female rats, Table 15b) was 0.84. The Progesterone (f7, female rats, Table 15b) was 0.34 *, the Pyruvate (f7, female rats, Table 15b) was 0.57 * and the “Sphingomyelin (d18:1,C23:0)” value (f7, female rats, Table 15b) was 0.51 *. The “Sphingomyelin (d18:1,C24:0)” value (f7, female rats, Table 15b) was 0.62 *, the Urea (f7, female rats, Table 15b) was 0.74 * and the 3-Hydroxybutyrate (f14, female rats, Table 15a) was 1.73 *. The “DAG (C18:1,C18:2)” value (f14, female rats, Table 15a) was 1.56, the Glutamate (f14, female rats, Table 15a) was 1.13 * and the Glycine (f14, female rats, Table 15a) was 1.2 *. For the same compound, the “Phosphatidylcholine (C16:0,C20:5)” value (f14, female rats, Table 15a) was 1.18 *, the “TAG (C16:0,C16:1)” value (f14, female rats, Table 15a) was 1.41 and the “TAG (C16:0,C18:1,C18:3)” value (f14, female rats, Table 15a) was 2.26 *. For the same compound, the “TAG (C16:0,C18:2)” value (f14, female rats, Table 15a) was 1.9, the “TAG (C18:1,C18:2)” value (f14, female rats, Table 15a) was 1.97 * and the “TAG (C18:2,C18:2)” value (f14, female rats, Table 15a) was 2.21 *. The “TAG (C18:3, C18:2, C18:1)” value (f14, female rats, Table 15a) was 2.39 *, the “TAG (DAG-Fragment)” value (f14, female rats, Table 15a) was 2.67 * and the “TAG No 059” value (f14, female rats, Table 15a) was 2.14 *. For the same compound, the Threonic acid (f14, female rats, Table 15a) was 1.76 *, the trans-4-Hydroxyproline (f14, female rats, Table 15a) was 1.37 * and the Androstenedione (f14, female rats, Table 15b) was 0.15 *. For the same compound, the Arginine (f14, female rats, Table 15b) was 0.69 *, the Campesterol (f14, female rats, Table 15b) was 0.4 * and the “Ceramide (d18:1,C24:0)” value (f14, female rats, Table 15b) was 0.41 *. For the same compound, the Lactate (f14, female rats, Table 15b) was 0.56 *, the Lysine (f14, female rats, Table 15b) was 0.62 * and the Metanephrine (f14, female rats, Table 15b) was 1.03. The Normetanephrine (f14, female rats, Table 15b) was 0.83 *, the “Phosphatidylcholine (C16:0,C20:5)” value (f14, female rats, Table 15b) was 1.18 and the “Phosphatidylcholine (C16:0,C22:6)” value (f14, female rats, Table 15b) was 0.87 *. For the same compound, the “Phosphatidylcholine (C18:0, C20:3)” value (f14, female rats, Table 15b) was 0.75 *, the “Phosphatidylcholine (C18:0,C18:1)” value (f14, female rats, Table 15b) was 0.66 * and the Progesterone (f14, female rats, Table 15b) was 0.17 *. The Pyruvate (f14, female rats, Table 15b) was 0.61 *, the “Sphingomyelin (d18:1,C23:0)” value (f14, female rats, Table 15b) was 0.46 * and the “Sphingomyelin (d18:1,C24:0)” value (f14, female rats, Table 15b) was 0.64 *. For the same compound, the Urea (f14, female rats, Table 15b) was 0.72 *, the 3-Hydroxybutyrate (f28, female rats, Table 15a) was 1.32 * and the “DAG (C18:1,C18:2)” value (f28, female rats, Table 15a) was 1.79 *. For the same compound, the Glutamate (f28, female rats, Table 15a) was 1.23 *, the Glycine (f28, female rats, Table 15a) was 1.37 * and the “Phosphatidylcholine (C16:0,C20:5)” value (f28, female rats, Table 15a) was 1.17 *. For the same compound, the “TAG (C16:0,C16:1)” value (f28, female rats, Table 15a) was 1.28 *, the “TAG (C16:0,C18:1,C18:3)” value (f28, female rats, Table 15a) was 2.48 * and the “TAG (C16:0,C18:2)” value (f28, female rats, Table 15a) was 2.08 *. The “TAG (C18:1,C18:2)” value (f28, female rats, Table 15a) was 2.25 *, the “TAG (C18:2,C18:2)” value (f28, female rats, Table 15a) was 2.7 * and the “TAG (C18:3, C18:2, C18:1)” value (f28, female rats, Table 15a) was 3.06 *. For the same compound, the “TAG (DAG-Fragment)” value (f28, female rats, Table 15a) was 3.12 *, the “TAG No 059” value (f28, female rats, Table 15a) was 2.7 * and the Threonic acid (f28, female rats, Table 15a) was 0.84. For the same compound, the trans-4-Hydroxyproline (f28, female rats, Table 15a) was 1.66 *, the Androstenedione (f28, female rats, Table 15b) was 0.23 * and the Arginine (f28, female rats, Table 15b) was 0.78 *. For the same compound, the Campesterol (f28, female rats, Table 15b) was 0.9, the “Ceramide (d18:1,C24:0)” value (f28, female rats, Table 15b) was 0.69 * and the Lactate (f28, female rats, Table 15b) was 0.59 *. The Lysine (f28, female rats, Table 15b) was 0.65 *, the Metanephrine (f28, female rats, Table 15b) was 0.47 * and the Normetanephrine (f28, female rats, Table 15b) was 0.75 *. The “Phosphatidylcholine (C16:0,C20:5)” value (f28, female rats, Table 15b) was 1.17, the “Phosphatidylcholine (C16:0,C22:6)” value (f28, female rats, Table 15b) was 0.93 and the “Phosphatidylcholine (C18:0, C20:3)” value (f28, female rats, Table 15b) was 0.87 *. The “Phosphatidylcholine (C18:0,C18:1)” value (f28, female rats, Table 15b) was 0.81 *, the Progesterone (f28, female rats, Table 15b) was 0.3 * and the Pyruvate (f28, female rats, Table 15b) was 0.72 *. For the same compound, the “Sphingomyelin (d18:1,C23:0)” value (f28, female rats, Table 15b) was 0.64 *, the “Sphingomyelin (d18:1,C24:0)” value (f28, female rats, Table 15b) was 0.74 * and the Urea (f28, female rats, Table 15b) was 0.54 *.
